From PMC6430017, “Structural and chemical insights into the covalent-allosteric inhibition of the protein kinase Akt” (Chemical Science, 2019) come the findings set out here.

SMILES strings stand for the structures.

What all share (assay): SelectScreen Z'LYTE kinase profiling
Holding throughout (format): biochemical
Common to all, as to conditions: ATP at apparent KM

Assay [1] addresses PRKCA (PKC alpha) (Homo sapiens, UniProt P17252).
For assay [2], the target named is CAMK1D (CaMKI delta) (Homo sapiens, UniProt Q8IU85).
CAMK1D (CaMKI delta), sequence (Q8IU85 whole entry): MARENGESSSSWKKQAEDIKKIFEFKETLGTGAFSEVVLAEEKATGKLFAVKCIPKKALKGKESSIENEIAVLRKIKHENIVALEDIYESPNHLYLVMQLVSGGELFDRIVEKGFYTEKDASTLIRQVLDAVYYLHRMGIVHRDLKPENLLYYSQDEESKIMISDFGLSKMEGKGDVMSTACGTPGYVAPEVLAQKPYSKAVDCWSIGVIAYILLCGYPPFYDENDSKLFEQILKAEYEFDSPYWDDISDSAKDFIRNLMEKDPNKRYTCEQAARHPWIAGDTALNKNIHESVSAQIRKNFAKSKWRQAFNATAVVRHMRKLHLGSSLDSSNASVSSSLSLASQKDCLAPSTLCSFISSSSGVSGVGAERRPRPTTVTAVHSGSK
The target in assay [3] is T1, PRKD1 (PKC mu) (Homo sapiens, UniProt Q15139).
T1 sequence (Q15139 1-912): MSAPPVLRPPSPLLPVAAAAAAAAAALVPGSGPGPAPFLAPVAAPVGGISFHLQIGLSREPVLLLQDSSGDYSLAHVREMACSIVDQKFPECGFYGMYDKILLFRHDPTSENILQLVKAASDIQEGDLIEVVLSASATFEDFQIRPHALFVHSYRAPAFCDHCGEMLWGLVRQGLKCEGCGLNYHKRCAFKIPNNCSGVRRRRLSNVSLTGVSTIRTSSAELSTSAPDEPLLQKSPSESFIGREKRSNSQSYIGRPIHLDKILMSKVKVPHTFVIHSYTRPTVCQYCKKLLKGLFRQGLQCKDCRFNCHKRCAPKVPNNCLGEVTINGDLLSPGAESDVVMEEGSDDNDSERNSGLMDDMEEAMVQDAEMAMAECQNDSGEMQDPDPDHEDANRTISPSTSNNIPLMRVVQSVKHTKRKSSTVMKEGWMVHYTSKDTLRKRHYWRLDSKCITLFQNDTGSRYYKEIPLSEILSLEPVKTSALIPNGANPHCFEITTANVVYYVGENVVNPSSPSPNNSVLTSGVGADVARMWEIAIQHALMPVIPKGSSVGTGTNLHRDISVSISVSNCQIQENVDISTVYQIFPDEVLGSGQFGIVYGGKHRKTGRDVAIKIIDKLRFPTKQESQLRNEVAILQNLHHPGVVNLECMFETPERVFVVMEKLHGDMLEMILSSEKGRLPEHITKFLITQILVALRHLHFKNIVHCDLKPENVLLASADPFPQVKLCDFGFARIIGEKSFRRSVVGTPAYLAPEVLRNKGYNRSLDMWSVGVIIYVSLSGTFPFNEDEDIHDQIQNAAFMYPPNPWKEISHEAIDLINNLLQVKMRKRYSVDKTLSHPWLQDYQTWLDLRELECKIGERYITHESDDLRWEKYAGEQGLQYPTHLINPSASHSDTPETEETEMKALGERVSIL

The target of assay [4] is PAK1 (Homo sapiens, UniProt Q13153).
PAK1, sequence (Q13153 whole entry): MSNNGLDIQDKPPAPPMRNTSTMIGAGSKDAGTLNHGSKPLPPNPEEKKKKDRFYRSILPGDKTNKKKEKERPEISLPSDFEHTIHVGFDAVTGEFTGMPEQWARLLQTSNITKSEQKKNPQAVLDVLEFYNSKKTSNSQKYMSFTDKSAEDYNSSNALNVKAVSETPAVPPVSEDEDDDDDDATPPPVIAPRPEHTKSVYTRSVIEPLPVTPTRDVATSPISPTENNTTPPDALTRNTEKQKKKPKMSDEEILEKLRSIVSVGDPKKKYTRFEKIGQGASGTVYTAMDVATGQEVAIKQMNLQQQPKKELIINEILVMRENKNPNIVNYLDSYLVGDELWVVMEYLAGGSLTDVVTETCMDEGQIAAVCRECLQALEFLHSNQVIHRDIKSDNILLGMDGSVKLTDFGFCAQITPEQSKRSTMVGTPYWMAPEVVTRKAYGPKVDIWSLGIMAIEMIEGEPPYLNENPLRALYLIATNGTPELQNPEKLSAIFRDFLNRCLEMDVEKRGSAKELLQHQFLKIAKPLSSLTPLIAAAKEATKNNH
Assay [5] addresses T2, TBK1 (Homo sapiens, UniProt Q9UHD2).
T2 sequence (Q9UHD2 1-729): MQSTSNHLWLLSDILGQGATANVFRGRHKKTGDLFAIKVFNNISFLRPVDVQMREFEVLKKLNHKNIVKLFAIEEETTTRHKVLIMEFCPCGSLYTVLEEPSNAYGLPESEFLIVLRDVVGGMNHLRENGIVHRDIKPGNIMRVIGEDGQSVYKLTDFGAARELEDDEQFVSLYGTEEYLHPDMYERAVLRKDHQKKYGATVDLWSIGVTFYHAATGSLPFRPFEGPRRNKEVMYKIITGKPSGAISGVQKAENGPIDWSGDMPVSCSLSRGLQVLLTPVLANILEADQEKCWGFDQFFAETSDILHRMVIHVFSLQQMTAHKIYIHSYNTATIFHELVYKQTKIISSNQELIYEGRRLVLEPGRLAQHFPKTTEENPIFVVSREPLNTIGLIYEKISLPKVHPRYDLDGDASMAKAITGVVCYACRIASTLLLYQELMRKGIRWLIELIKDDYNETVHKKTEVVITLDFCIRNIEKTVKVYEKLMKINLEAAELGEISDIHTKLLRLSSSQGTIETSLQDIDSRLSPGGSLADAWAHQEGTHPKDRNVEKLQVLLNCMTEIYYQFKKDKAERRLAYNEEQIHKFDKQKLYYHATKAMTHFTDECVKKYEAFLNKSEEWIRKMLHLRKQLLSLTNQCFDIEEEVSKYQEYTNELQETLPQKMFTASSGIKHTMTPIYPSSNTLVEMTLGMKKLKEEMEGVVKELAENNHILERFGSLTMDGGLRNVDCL

For assay [6], the target named is MAPKAPK3 (Homo sapiens, UniProt Q16644).
MAPKAPK3, sequence (Q16644 whole entry): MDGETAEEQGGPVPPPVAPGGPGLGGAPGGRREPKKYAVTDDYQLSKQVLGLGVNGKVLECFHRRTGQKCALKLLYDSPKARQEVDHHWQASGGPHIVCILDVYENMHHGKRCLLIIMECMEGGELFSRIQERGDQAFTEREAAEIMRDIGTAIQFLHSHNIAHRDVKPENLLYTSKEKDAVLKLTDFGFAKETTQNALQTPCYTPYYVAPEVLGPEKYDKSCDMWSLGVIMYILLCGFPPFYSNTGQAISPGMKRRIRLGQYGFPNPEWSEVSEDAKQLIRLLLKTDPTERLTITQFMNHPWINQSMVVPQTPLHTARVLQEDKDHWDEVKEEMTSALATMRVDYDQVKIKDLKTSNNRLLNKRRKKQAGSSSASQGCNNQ
In assay [7] the target is PRKACA (PKA) (Homo sapiens, UniProt P17612).
Assay [8] has as its target MAPKAPK2 (Homo sapiens, UniProt P49137).
In assay [9] the target is PRKCQ (PKC theta) (Homo sapiens, UniProt Q04759).
PRKCQ (PKC theta), sequence (Q04759 whole entry): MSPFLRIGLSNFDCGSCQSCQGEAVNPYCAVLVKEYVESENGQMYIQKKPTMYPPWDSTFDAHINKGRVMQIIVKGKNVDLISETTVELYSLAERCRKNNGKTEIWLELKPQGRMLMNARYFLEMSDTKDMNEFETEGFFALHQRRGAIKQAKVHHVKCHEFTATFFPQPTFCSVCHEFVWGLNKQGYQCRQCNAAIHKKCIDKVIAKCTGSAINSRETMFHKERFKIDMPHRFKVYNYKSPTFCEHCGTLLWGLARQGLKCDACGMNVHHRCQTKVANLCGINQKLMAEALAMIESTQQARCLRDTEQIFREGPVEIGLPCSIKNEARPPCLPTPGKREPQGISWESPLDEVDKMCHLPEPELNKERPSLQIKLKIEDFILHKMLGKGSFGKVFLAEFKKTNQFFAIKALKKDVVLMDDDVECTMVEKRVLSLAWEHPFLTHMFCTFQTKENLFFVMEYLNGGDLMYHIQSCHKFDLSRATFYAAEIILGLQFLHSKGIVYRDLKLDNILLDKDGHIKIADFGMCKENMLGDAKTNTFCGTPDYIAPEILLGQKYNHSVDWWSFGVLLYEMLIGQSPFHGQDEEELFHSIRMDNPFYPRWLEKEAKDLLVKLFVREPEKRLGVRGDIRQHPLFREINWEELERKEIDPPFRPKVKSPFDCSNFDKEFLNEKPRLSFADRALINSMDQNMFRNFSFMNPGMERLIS
Assay [10] has as its target T3, SGKL (SGK3) (Homo sapiens, UniProt Q96BR1).
T3 sequence (Q96BR1 1-496): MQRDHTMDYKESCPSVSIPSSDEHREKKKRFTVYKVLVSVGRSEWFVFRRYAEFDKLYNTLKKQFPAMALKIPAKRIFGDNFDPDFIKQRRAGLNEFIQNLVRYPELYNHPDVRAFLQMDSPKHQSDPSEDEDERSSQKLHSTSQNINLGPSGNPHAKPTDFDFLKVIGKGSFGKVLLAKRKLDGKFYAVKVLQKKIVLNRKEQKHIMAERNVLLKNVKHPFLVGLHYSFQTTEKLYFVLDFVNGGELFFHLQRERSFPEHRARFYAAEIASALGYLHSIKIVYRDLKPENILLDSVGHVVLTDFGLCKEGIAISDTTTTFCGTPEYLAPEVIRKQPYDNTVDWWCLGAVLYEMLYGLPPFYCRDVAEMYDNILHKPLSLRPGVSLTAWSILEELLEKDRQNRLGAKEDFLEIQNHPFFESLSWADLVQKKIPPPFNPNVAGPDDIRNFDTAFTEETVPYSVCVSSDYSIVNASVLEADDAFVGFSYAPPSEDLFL

The target of assay [11] is MKNK1 (MNK1) (Homo sapiens, UniProt Q9BUB5).
MKNK1 (MNK1), sequence (Q9BUB5 whole entry): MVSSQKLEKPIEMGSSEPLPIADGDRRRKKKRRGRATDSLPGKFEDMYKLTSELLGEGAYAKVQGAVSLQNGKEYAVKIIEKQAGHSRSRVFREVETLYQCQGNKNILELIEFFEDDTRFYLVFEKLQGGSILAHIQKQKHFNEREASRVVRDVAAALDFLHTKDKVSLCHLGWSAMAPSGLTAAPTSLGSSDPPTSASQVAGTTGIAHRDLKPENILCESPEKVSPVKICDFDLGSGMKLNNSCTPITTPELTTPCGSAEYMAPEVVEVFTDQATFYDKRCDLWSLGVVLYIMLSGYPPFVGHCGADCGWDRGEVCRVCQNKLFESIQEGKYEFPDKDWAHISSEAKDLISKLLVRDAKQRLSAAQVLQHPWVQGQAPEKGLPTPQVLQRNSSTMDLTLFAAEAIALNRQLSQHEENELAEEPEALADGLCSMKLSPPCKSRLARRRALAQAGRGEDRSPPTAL
Assay [12] concerns the target MARK2 (Homo sapiens, UniProt Q7KZI7).

MARK2, sequence (Q7KZI7 whole entry): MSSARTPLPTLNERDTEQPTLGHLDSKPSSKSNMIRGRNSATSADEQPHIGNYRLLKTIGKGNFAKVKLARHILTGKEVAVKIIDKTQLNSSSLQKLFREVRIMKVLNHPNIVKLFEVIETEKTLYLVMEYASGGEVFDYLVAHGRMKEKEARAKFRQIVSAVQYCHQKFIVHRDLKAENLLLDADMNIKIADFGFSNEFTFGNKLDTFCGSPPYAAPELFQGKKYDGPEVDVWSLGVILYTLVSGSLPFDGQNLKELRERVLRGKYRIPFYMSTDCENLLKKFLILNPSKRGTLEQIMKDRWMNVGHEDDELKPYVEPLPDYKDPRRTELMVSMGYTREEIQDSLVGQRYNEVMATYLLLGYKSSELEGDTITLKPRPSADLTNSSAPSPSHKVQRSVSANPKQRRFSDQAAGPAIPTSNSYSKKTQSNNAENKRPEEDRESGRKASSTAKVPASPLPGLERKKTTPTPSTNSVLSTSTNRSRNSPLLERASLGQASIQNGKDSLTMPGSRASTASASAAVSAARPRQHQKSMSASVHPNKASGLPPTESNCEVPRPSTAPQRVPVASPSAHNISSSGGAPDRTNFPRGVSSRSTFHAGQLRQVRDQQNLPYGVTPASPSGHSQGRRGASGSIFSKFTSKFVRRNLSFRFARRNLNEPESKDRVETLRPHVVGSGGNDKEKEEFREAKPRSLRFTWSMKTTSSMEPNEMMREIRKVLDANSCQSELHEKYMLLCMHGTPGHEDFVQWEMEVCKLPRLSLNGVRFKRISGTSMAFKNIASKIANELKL
MAPKAPK2, sequence (P49137 whole entry): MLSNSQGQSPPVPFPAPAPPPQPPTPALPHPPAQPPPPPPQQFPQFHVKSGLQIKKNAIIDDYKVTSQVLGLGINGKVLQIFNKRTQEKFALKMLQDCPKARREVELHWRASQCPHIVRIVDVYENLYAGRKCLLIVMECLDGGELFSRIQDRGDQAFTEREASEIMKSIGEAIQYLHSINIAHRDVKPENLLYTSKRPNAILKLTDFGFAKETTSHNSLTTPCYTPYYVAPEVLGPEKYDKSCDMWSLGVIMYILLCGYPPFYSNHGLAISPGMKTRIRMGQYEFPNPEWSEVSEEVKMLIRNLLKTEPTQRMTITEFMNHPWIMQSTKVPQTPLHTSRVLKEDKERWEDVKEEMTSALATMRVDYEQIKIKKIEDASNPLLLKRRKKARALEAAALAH

As usually defined, the inhibition is the relative decrease from the control value, in per cent. For `C=CC(=O)Nc1ccc2c(c1)n(C1CCN(Cc3ccc(-c4nc5cc[nH]c(=O)c5cc4-c4ccccc4)cc3)CC1)c(=O)n2C` [24b], the inhibition at 1 µM in assay [1] was 23%; in [2] it was 9%; in [3] it was 13%; in [4], 12%; in assay [5] it was 4%; in assay [6], 23%. For the same molecule, the inhibition at 1 µM in assay [7] is 2%; in assay [8] it was 29%; in assay [9], 7%; in assay [10], -5%; in [11], -22%; in assay [12], 4%.

Regarding `C=CC(=O)Nc1cccc(C(=O)NC2CCN(Cc3ccc(-c4nc5cc[nH]c(=O)c5cc4-c4ccccc4)cc3)CC2)c1` [30b], the inhibition at 1 µM amounted to 27% in assay [1]; 3% in [2]; 6% in assay [3]; 4% in [4]; 5% in assay [5]; 23% in [6]. The inhibition at 1 µM in assay [7] is 10%; in [8], 31%; in assay [9], 13%; in assay [10], -4%; in [11] it was 10%; in assay [12], 4%.

Regarding `C=CC(=O)Nc1cc(NC(=O)NC2CCN(Cc3ccc(-c4nc5cc[nH]c(=O)c5cc4-c4ccccc4)cc3)CC2)ccc1Cl` [compound 27], the inhibition at 1 µM in assay [1] was 16%; in assay [2] it was 12%; in assay [3] it was 17%; in assay [4], -2%; in [5], 3%; in assay [6], 23%. Moreover, the inhibition at 1 µM in assay [7] was -4%; in assay [8], 33%; in assay [9] it was 11%; in assay [10] it was -1%; in assay [11], 29%; in assay [12], 6%.
